From patent publication US20160082133A1, “CHEMICAL EXCHANGE SATURATION TRANSFER (CEST) BASED MRI USING REPORTER GENES AND SUBSTRATES AND METHODS THEREOF” (The Johns Hopkins University, priority 2013, published 2016)

What was measured:
HSV1-TK [1] = type: in vivo, mice; details: 3 h after iv injection, 150 mg/kg, 5 ppm, n=8
Text: (§1) At the last time point of the experiment the full CEST-spectrum was acquired for each animal with the same parameters described in the Experimental Section (main text) except the followings: CEST-weighted images were acquired with a modified RARE pulse sequence (TR/TE=6000/35 ms), using a 213 Hz/4000 ms saturation pulse from −6 to +6 ppm around the water resonance, which was assigned to be at 0 ppm. Pixel-based B0 correction was used as described before (Kim, M. et al. Magn Reson Med 2009, 61, 1441) using the same parameters as above except for TR=1500 ms, B1/tsat=21 Hz/500 ms, with a sweep range from −1 to +1 ppm (0.1 ppm steps). Mean CEST spectra were plotted from an ROI for each tumor and normal brain tissue, after B0 correction. MTRasym=100×(S^−Δω−S^Δω)/S0 was computed at different offsets Δω.
(§2) pcDNA3.1-HSV1-tk was used to transfect 9L rat glioma cells. A single clone was selected with 0.5 mg/mL G418 antibiotics. 9L^HSV1-tk and nontransfected wild type 9L cells (9L^wt) were inoculated (2×10^5 cells/2 μL saline) bilaterally into the striatum of adult NOD-SCID male mice to generate intracranial 9L tumors in both hemispheres.
(§3) Data were acquired using a horizontal 11.7 T MRI scanner (Bruker, Biospec) equipped with a circular polarized MRI transceiver coil (i.d.=23 mm) Seven days after cell transplantation, mice were anesthetized with 1.5% isoflurane, and a series of […] CEST data sets were obtained at 1, 2, and 3 h following intravenous (iv) injection of 2 in saline (150 mg/kg body). CEST weighted images were acquired with a modified RARE pulse sequence (TR/TE=6000/35 ms), using a 213 Hz/4000 ms saturation pulse alternating between ±5 ppm frequency offsets from the water frequency. For each time point, the MTRasym map was calculated from four pairs of s−5 ppm/s+5 ppm using MATLAB (Mathworks). A single 1 mm slice with FOV of 1.6×1.6 cm^2 and a 128×48 matrix was used.

HSV1-TK [2] = biological target: T1, HSV1-TK (Human herpesvirus 1, UniProt P0DTH5); type: in vivo, mice
T1 construct: V5; expressed in transfected cells; host or cells: 9L rat glioma cells transfected with pcDNA3.1-HSV1-tk, single G418-selected clone, implanted in NOD-SCID mouse brain
Text: as §1, §2, §3

T1 sequence (P0DTH5 whole entry): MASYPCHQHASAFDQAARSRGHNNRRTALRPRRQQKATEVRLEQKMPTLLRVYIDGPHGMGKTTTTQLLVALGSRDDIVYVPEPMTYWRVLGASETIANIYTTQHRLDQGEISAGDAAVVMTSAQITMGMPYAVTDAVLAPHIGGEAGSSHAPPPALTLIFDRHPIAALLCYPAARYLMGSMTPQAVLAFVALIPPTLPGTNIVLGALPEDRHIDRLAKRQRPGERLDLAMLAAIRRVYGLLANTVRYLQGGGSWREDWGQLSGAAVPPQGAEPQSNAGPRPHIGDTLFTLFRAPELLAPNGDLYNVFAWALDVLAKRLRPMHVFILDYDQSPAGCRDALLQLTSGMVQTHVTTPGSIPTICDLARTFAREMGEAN

## CC1(C)CN([C@H]2C[C@H](O)[C@@H](CO)O2)C(=O)NC1=O [Compound 2, 5-Methyl-5,6-dihydrothymidine]
HSV1-TK [1]
  normalized mean MTRasym values (ΔMTRasym), 9L^wt tumor: 2.0±1.7
HSV1-TK [2]; 5.0 ppm, last time point, N=8
  average difference in ΔMTRasym between the two tumor types (full CEST spectrum): approximately 0.77%
HSV1-TK [2]; 3 h after iv injection, 150 mg/kg, 5 ppm, n=8
  normalized mean MTRasym values (ΔMTRasym), 9L^HSV1-tk tumor: 4.5±1.5
HSV1-TK [2]; from calibration curve, in vivo
  estimated intracellular concentration in 9L^HSV1-tk tumors: approximately 0.7 mM
